According to patent US5506102A (priority 1993, dated 1996):

Experiments:
Assay type in all cases: cell-based
human estrogen receptor = assay: ER transcriptional activity on MMTV-ERE-LUC, CV-1 cells, ER co-expressed with PR-A
Description: All values were normalized for transfection efficiency by simultaneous estimation of luciferase and β-galactocidase activities. The relative luciferase activity is calculated by dividing the normalized luciferase value at a given point by that obtained in the absence of transfected receptor or ligand. Data shown represent the mean +/- the average deviation from the mean of triplicate estimations.
Experimental protocols and data calculation are as described in FIG. 11. The experiment detailed above is representative of independent assays (N>3). Data shown represent the mean +/- the average deviation from the mean of triplicate estimations.
Vegeto et al., supra. Cells were plated into 96-well tissue culture plates. The vector DNA was introduced into the CV-1 cells using calcium phosphate coprecipitation as described herein. More specifically, 20 μg of DNA/ml of transfection buffer were used in each transfection. Each transfection mix included 0.5 μg of pRST7hER, 9.5 μg of MMTV-ERE-LUC, 5 μg of pCH110, (which contains the gene for β-galactosidase) as an internal control and 5 μg of PGEM4 DNA as a carrier. Depending on the experiment, 0.1 μg pSVhPR-A or pSVhPR-B and an amount of pSVXV2neo (Dr. Bert O'Malley, Baylor College of Medicine) to bring the total amount of DNA to 20 μg was added. The concentration of pXVhPR-A vector chosen was determined by performing the experiment at several different concentrations of vector, and then using that concentration that was optimal for transcriptional readout. The concentration of pSVhPR-B vector was chosen based upon the amount required to give an identical amount of immunoreactive PR-A and PR-B. After transfections using a Biomek 1000 automated laboratory workstation, the cells were incubated with the precipitate for 6 hours. Cells were washed with PBS and incubated for 40 hours with or without hormones as indicated. Cell extracts were prepared as previously described herein and assayed for luciferase (LUC) and β-galactosidase activities. The Normalized LUC activity was calculated by dividing the raw luciferase (×10^4) units for each point by the β-galactosidase activity [(OD415 nm ×10^5)/time min.] at that point.

[1] = target: T1, human progesterone receptor isoform PR-A (Homo sapiens, UniProt P06401); assay: PR-A transactivation of MMTV-LUC reporter, transient transfection; settings: 10^-7 M progesterone
T1 sequence (P06401 165-933): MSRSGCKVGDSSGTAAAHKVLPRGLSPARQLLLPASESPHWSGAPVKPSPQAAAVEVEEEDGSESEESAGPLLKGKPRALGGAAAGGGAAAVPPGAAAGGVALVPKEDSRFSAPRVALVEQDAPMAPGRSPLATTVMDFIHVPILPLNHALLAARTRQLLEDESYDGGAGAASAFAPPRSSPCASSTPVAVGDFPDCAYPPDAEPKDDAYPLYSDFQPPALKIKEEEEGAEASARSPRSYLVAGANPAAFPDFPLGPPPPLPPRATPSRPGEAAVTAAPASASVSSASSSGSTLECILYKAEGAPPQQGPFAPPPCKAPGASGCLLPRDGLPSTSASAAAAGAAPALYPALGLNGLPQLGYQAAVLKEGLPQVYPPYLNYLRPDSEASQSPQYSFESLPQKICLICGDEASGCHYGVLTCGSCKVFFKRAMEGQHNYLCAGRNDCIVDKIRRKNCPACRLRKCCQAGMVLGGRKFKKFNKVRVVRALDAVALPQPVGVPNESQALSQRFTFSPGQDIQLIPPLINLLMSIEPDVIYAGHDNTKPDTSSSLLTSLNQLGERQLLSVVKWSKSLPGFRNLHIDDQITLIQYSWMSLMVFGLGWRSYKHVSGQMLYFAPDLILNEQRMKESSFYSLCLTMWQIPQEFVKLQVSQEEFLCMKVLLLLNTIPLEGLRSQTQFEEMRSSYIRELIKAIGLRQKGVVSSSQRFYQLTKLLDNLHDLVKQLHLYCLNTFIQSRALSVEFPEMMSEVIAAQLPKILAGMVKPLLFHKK
Description: Cells were seeded in 12-well, 96-well or 10 cm tissue culture plates. […] 20 μg of DNA/ml of transfection buffer were used in each transfection reaction. In this mix, the concentration of the luciferase plasmids and that of the internal control plasmid pCH110 (Pharmacia, Inc.), which contains the gene for the β-galactosidase enzyme, remained constant ([…] of each plasmid DNA), while the receptor plasmid concentration varied as indicated for each experiment. Different amounts of receptor parental plasmid, pSV2-neo (Dr. Bert O'Malley, Baylor College of Medicine, Houston, Tex.) was included to keep constant the total amount of the SV40 enhancer vectors. pGEM4 plasmid DNA (Promega Biotech, Madison, Wis.) was added to balance the total DNA concentration to 20 g/reaction. For the 96-well plate experiments, transfections were performed on a Biomek 1000 Automated Laboratory Workstation (Beckman Instruments, Fullerton, Calif.).
Cells were seeded 24 hours prior to transfection in the fiat-bottom tissue culture plates ([…]) in phenol red-free DMEM containing 10% FCS. […] Using calcium phosphate co-precipitation, DNA solution was added dropwise with vortexing into an equal volume of 2X HBS pH 6.9 (280 mM NaCl. 50 mM HEPES, 1.5 mM Na2 HPO4) and precipitates were allowed to form for 20 minutes. Cells were transfected ( […] of DNA mix/well) for 6 hours and then washed with phosphate-bufferedsaline (PBS) to remove the precipitate. Cells were incubated for an additional 24 hours in phenol red-free medium containing 10% charcoal-treated FCS, with or without hormones as indicated in the text. Cell extracts were prepared as described by Berger et al., Supra, and assayed for luciferase and β-galactosidase activities. All determinations were performed in triplicates in at least two independent experiments, and were normalized for transfection efficiency by using β-galactosidase as an internal control.

[2] = system: human progesterone receptor isoform PR-B; assay: PR-B transactivation of MMTV-LUC reporter, transient transfection; settings: 10^-7 M progesterone
Description: The cells were then incubated with either progesterone or an inert vehicle (ethanol (ETOH)). Western immunoblot analysis using two PR specific monoclonal antibodies (B30 and AB52, available from Dean Edwards, University of Colorado) confirmed that no hPR-A was synthesized from our PR-B constructs.

SMILES	IC50 (human estrogen receptor; 10^-7 M 17-β-estradiol, read-out: half maximal inhibition (IC50) of ER in the presence of hPR-A) [nM]	efficacy compared to the pure anti-estrogen ICI-164,384 (human estrogen receptor; PR-A co-expressed, 100% = 10^-7 M 17-β-estradiol + 10^-6 M ICI-164,384, FIG. 12)	maximal inhibition of ER activation by 17-β-estradiol (human estrogen receptor; 10 nM progesterone, hPR-A co-expressed, 10^-7 M 17β-estradiol, FIG. 11C) [%]	progesterone-induced activation of the MMTV promoter by PR-A ([1]; CV-1 cells, FIG. 2A)	maximal induction ([1]; HeLa cells, MMTV, 250 ng of transfected DNA, FIG. 2B)	activation of the MMTV promoter by PR-A ([1]; HepG2 cells, FIG. 2C)	progesterone mediated activation of the MMTV promoter ([2]; CV-1 cells, PR-B, FIG. 2A)	activation of the MMTV promoter by PR-B ([2]; HepG2 cells, FIG. 2C)
CC#C[C@]1(O)CC[C@H]2[C@@H]3CCC4=CC(=O)CCC4=C3[C@@H](c3ccc(C(C)=O)cc3)C[C@@]21C [ZK112993]	0.5	greater than 80%	–	–	–	–	–	–
CC(=O)[C@H]1CC[C@H]2[C@@H]3CCC4=CC(=O)CC[C@]4(C)[C@H]3CC[C@]12C [progesterone]	–	–	55	no progesterone-induced activation of the MMTV promoter by PR-A was observed	ten-fold	both PR-A and PR-B functioned as efficient activators	permitted progesterone mediated activation of the MMTV promoter	both PR-A and PR-B functioned as efficient activators
